Assay results reported in patent publication US20260273072A1, “NOVEL PLK1 DEGRADATION INDUCING COMPOUND” (UPPTHERA, INC., priority 2023, published 2026).

Key:
Assay type in all cases: cell-based
PLK1 = biological target: T1, PLK1 (Homo sapiens, UniProt P53350); assay: Luciferase assay for PLK1 in HeLa LgBit (Plk1-HiBit KI) cell line; settings: 300 nM compound, luminescence after 9 hours
T1 construct: endogenous in cells; host or cells: HeLa LgBit (Plk1-HiBit KI): HeLa stably expressing LgBit, with a CRISPR/Cas9 knock-in of HiBit at the endogenous PLK1 locus
Method in brief: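 HeLa LgBit cells with endogenous PLK1 C-terminally HiBit-tagged by CRISPR knock-in; released from 24 h 2 mM thymidine block, seeded, grown 18 h. Compounds at 300 nM with Endurazine substrate; luminescence (470-480 nm) tracked in real time, expressed as ratio to DMSO.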

NCI-H526 cell line = assay: Cell viability assay for NCI-H526 cell line (EZ-Cytox); settings: Homo sapiens, NCI-H526, 120 h; H526 cells, 5 days, 3000 nM to 0.46 nM
Method in brief: (§1)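 Human SCLC lines cultured with compound for 5 days in a CO2 incubator; viability read by EZ-Cytox absorbance at 450 nm after 3 min shaking. IC50 reported in activity bins (A: <30 nM up to E: <400 nM).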

NCI-H69 cell line = assay: Cell viability assay for NCI-H69 cell line (EZ-Cytox); settings: Homo sapiens, NCI-H69, 120 h; H69 cells, 5 days, 3000 nM to 0.46 nM
Method in brief: as §1

MRC-5 cell line = assay: Cell viability assay for MRC-5 cell line (EZ-Cytox); settings: Homo sapiens, MRC5, 120 h; MRC-5 normal cell line, 5 days, 10000 nM to 1.52 nM; read-out: Activity: IC50 value, cell viability, MRC-5 cell line (Exemplary Compounds)
Procedure: 4. Cell Viability Assay for MRC-5 Cell Line
(1) Culture of MRC-5 Cell Line
The MRC-5 cell line was purchased from KCLB. Passage of cultured cells was maintained within P15.
(2) Treatment of Compounds of the Present Invention
Then, it was cultured in 37° C. CO2 incubator (Thermo Fisher Scientific) for 5 days.
(3) Cytotoxicity Experiment
CO2 incubator for 4 hours.

T1 sequence (P53350 whole entry): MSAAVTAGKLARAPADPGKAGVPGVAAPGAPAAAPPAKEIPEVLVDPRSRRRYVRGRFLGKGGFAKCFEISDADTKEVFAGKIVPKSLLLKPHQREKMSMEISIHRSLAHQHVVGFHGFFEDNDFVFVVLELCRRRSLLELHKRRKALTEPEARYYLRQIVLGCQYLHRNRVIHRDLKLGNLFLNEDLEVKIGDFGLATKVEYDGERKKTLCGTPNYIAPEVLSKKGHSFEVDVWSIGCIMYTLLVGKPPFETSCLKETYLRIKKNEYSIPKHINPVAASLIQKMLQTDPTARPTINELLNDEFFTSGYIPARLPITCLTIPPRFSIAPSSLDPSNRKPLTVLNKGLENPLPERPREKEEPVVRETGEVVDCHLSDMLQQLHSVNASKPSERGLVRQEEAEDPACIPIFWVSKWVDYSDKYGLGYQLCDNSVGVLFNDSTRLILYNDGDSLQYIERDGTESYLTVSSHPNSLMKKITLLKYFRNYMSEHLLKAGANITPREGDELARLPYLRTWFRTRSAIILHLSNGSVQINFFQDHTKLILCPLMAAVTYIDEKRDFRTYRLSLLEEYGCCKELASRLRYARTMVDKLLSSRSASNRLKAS

| Activity: ratio of the luminescence value of compound treatment group to DMSO treatment group (PLK1) | Structure (SMILES) | IC50 (NCI-H526 cell line) [nM] | IC50 (NCI-H69 cell line) [nM] | IC50 (MRC-5 cell line) [nM] |
| --- | --- | --- | --- | --- |
| ++ (++: <0.5) | COc1cc(-c2nnc(N3CCC(CCN4CCN(c5cc(F)c(NC6CCC(=O)NC6=O)cc5F)CC4)CC3)o2)ccc1Nc1ncc2c(n1)N(C1CCCC1)CC(F)(F)C(=O)N2C (centres unmarked) [Compound 66, 3-((4-(4-(2-(1-(5-(4-((9-cyclopentyl-7,7-difluoro-5-methyl-6-oxo-6,7,8,9-tetrahydro-5H-pyrimido[4,5-b][1,4]diazepin-2-yl)amino)-3-methoxyphenyl)-1,3,4-oxadiazol-2-yl)piperidin-4-yl)ethyl)piperazin-1-yl)-2,5-difluorophenyl)amino)piperidine-2,6-dione] | < 200 | < 200 | > 10000 |
| ++ (++: <0.5) | COc1cc(C(=O)NC2CCN(CCN3CCN(c4cc(F)c(NC5CCC(=O)NC5=O)cc4F)CC3)CC2)ccc1Nc1ncc2c(n1)N(C1CCCC1)CC(F)(F)C(=O)N2C (centres unmarked) [Compound 67, 4-((9-cyclopentyl-7,7-difluoro-5-methyl-6-oxo-6,7,8,9-tetrahydro-5H-pyrimido[4,5-b][1,4]diazepin-2-yl)amino)-N-(1-(2-(4-(4-((2,6-dioxopiperidin-3-yl)amino)-2,5-difluorophenyl)piperazin-1-yl)ethyl)piperidin-4-yl)-3-methoxybenzamide] | < 30 | < 30 | > 10000 |
| ++ (++: <0.5) | COc1cc(C(=O)NC2CCN(CCN3CCN(c4cc(F)c(NC5CCC(=O)NC5=O)cc4F)CC3)CC2)ncc1Nc1ncc2c(n1)N(C1CCCC1)CC(F)(F)C(=O)N2C (centres unmarked) [Compound 68, 5-((9-cyclopentyl-7,7-difluoro-5-methyl-6-oxo-6,7,8,9-tetrahydro-5H-pyrimido[4,5-b][1,4]diazepin-2-yl)amino)-N-(1-(2-(4-(4-((2,6-dioxopiperidin-3-yl)amino)-2,5-difluorophenyl)piperazin-1-yl)ethyl)piperidin-4-yl)-4-methoxypicolinamide] | < 50 | < 100 | > 10000 |
| ++ (++: <0.5) | COc1cc(C(=O)NC2CC3(CCN(CC4CCN(c5cc(F)c(NC6CCC(=O)NC6=O)cc5F)CC4)CC3)C2)c(F)cc1Nc1ncc2c(n1)N(C(C)C)CC(F)(F)C(=O)N2C (centres unmarked) [Compound 69, 4-((7,7-difluoro-9-isopropyl-5-methyl-6-oxo-6,7,8,9-tetrahydro-5H-pyrimido[4,5-b][1,4]diazepin-2-yl)amino)-N-(7-((1-(4-((2,6-dioxopiperidin-3-yl)amino)-2,5-difluorophenyl)piperidin-4-yl)methyl)-7-azaspiro[3.5]nonan-2-yl)-2-fluoro-5-methoxybenzamide] | < 30 | < 50 | > 10000 |
| +++ (+++: <0.3) | COc1cc(C(=O)NN2CCC(CCN3CCN(c4ccc(NC5CCC(=O)NC5=O)c(F)c4F)CC3)CC2)ccc1Nc1ncc2c(n1)N(C1CCCC1)CC(F)(F)C(=O)N2C (centres unmarked) [Compound 71, 4-((9-cyclopentyl-7,7-difluoro-5-methyl-6-oxo-6,7,8,9-tetrahydro-5H-pyrimido[4,5-b][1,4]diazepin-2-yl)amino)-N-(4-(2-(4-(4-((2,6-dioxopiperidin-3-yl)amino)-2,3-difluorophenyl)piperazin-1-yl)ethyl)piperidin-1-yl)-3-methoxybenzamide] | < 30 | < 30 | > 10000 |
| ++ (++: <0.5) | COc1cc(C(=O)NC2CCN(CCN3CCN(c4cc(Cl)c(NC5CCC(=O)NC5=O)cc4F)CC3)CC2)c(F)cc1Nc1ncc2c(n1)N(C(C)C)CC(F)(F)C(=O)N2C (centres unmarked) [Compound 72, N(1-(2-(4-(5-chloro-4-((2,6-dioxopiperidin-3-yl)amino)-2-fluorophenyl)piperazin-1-yl)ethyl)piperidin-4-yl)-4-((7,7-difluoro-9-isopropyl-5-methyl-6-oxo-6,7,8,9-tetrahydro-5H-pyrimido[4,5-b][1,4]diazepin-2-yl)amino)-2-fluoro-5-methoxybenzamide] | < 50 | < 100 | > 10000 |
| ++ (++: <0.5) | COc1cc(C(=O)NC2CCN(CCN3CCN(c4cc(Cl)c(NC5CCC(=O)NC5=O)cc4F)CC3)CC2)c(F)cc1Nc1ncc2c(n1)N(C1CCCC1)CC(F)(F)C(=O)N2C (centres unmarked) [Compound 73, N(1-(2-(4-(5-chloro-4-((2,6-dioxopiperidin-3-yl)amino)-2-fluorophenyl)piperazin-1-yl)ethyl)piperidin-4-yl)-4-((9-cyclopentyl-7,7-difluoro-5-methyl-6-oxo-6,7,8,9-tetrahydro-5H-pyrimido[4,5-b][1,4]diazepin-2-yl)amino)-2-fluoro-5-methoxybenzamide] | < 50 | < 100 | > 10000 |
| +++ (+++: <0.3) | COc1cc(C(=O)NN2CCC(CCN3CCN(c4cc(C)c(NC5CCC(=O)NC5=O)cc4F)CC3)CC2)ccc1Nc1ncc2c(n1)N(C1CCCC1)CC(F)(F)C(=O)N2C (centres unmarked) [Compound 74, 4-((9-cyclopentyl-7,7-difluoro-5-methyl-6-oxo-6,7,8,9-tetrahydro-5H-pyrimido[4,5-b][1,4]diazepin-2-yl)amino)-N-(4-(2-(4-(4-((2,6-dioxopiperidin-3-yl)amino)-2-fluoro-5-methylphenyl)piperazin-1-yl)ethyl)piperidin-1-yl)-3-methoxybenzamide] | < 30 | < 30 | > 10000 |
| +++ (+++: <0.3) | COc1cc(C(=O)NN2CCC(CCN3CCN(c4cc(C)c(NC5CCC(=O)NC5=O)cc4F)CC3)CC2)ccc1Nc1ncc2c(n1)N(C(C)C)CC(F)(F)C(=O)N2C (centres unmarked) [Compound 75, 4-((7,7-difluoro-9-isopropyl-5-methyl-6-oxo-6,7,8,9-tetrahydro-5H-pyrimido[4,5-b][1,4]diazepin-2-yl)amino)-N-(4-(2-(4-(4-((2,6-dioxopiperidin-3-yl)amino)-2-fluoro-5-methylphenyl)piperazin-1-yl)ethyl)piperidin-1-yl)-3-methoxybenzamide] | < 30 | < 30 | > 10000 |
| ++ (++: <0.5) | COc1cc(C(=O)NN2CCC(CCN3CCN(c4cc(C#N)c(NC5CCC(=O)NC5=O)cc4F)CC3)CC2)ccc1Nc1ncc2c(n1)N(C1CCCC1)CC(F)(F)C(=O)N2C (centres unmarked) [Compound 76, N(4-(2-(4-(5-cyano-4-((2,6-dioxopiperidin-3-yl)amino)-2-fluorophenyl)piperazin-1-yl)ethyl)piperidin-1-yl)-4-((9-cyclopentyl-7,7-difluoro-5-methyl-6-oxo-6,7,8,9-tetrahydro-5H-pyrimido[4,5-b][1,4]diazepin-2-yl)amino)-3-methoxybenzamide] | < 30 | < 30 | > 10000 |
| ++ (++: <0.5) | COc1cc(C(=O)NN2CCC(CCN3CCN(c4ccc(NC5CCC(=O)NC5=O)nc4)CC3)CC2)ccc1Nc1ncc2c(n1)N(C1CCCC1)CC(F)(F)C(=O)N2C (centres unmarked) [Compound 77, 4-((9-cyclopentyl-7,7-difluoro-5-methyl-6-oxo-6,7,8,9-tetrahydro-5H-pyrimido[4,5-b][1,4]diazepin-2-yl)amino)-N-(4-(2-(4-(6-((2,6-dioxopiperidin-3-yl)amino)pyridin-3-yl)piperazin-1-yl)ethyl)piperidin-1-yl)-3-methoxybenzamide] | < 30 | < 30 | > 10000 |
